Measurements from ChEMBL document CHEMBL1128148, “Molecular design of novel PGI2 agonists without PG skeleton. III” (Bioorg Med Chem Lett, 1995).

Legend:
Homo sapiens = species: Homo sapiens; experiment: Compound was tested for the inhibition of 4 uM ADP-induced platelet aggregation by using human platelet rich plasma; format: functional
Prostacyclin receptor [1] = target: T1, Prostacyclin receptor (Homo sapiens, UniProt P43119); experiment: Compound was tested for prostacyclin (PGI-2) binding by displacement of [3H]iloprost from human platelets using conventional ligand binding assay
T1 sequence (P43119 whole entry): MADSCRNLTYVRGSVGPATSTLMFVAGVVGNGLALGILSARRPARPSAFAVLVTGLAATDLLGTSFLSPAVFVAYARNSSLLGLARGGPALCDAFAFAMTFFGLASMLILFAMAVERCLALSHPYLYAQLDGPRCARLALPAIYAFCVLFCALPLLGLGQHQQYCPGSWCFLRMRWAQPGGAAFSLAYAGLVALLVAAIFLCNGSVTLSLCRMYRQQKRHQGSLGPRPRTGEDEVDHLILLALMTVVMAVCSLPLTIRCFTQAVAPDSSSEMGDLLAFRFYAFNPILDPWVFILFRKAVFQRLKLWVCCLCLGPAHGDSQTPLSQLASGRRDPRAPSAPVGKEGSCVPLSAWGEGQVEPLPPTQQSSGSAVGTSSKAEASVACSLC

Prostacyclin receptor [2] = target: T1, Prostacyclin receptor; experiment: Compound was tested for prostacyclin (PGI-2) binding by displacement of [3H]iloprost from human platelets.; details: concentration not given here

Row | SMILES | IC50 (Homo sapiens) [nM] | IC50 (Prostacyclin receptor [1]) [nM] | inhibition (Prostacyclin receptor [2]) [%]
1 | O=C(O)COc1cccc2c1CCC(CC(=O)NN(c1ccccc1)c1ccccc1)C2 (stereo unspecified) | 150 | – | –
2 | O=C(O)COc1cccc2c1CCCC2CCC(=O)NN(c1ccccc1)c1ccccc1 (stereo unspecified) | 57 | 10 | –
3 | O=C(O)COc1cccc2c1CCC(CCCOC(c1ccccc1)c1ccccc1)C2 (stereo unspecified) | > 20000 | > 10000 | 25
4 | O=C(O)COc1cccc2c1CCCC2CCCCOC(c1ccccc1)c1ccccc1 (stereo unspecified) | 11000 | 4200 | –
5 | O=C(O)COc1cccc2c1CCC(CCOC(c1ccccc1)c1ccccc1)C2 (stereo unspecified) | > 20000 | 8000 | –
6 | O=C(O)COc1cccc2c1CCCC2CCON=C(c1ccccc1)c1ccccc1 (stereo unspecified) | 250 | 210 | –
7 | O=C(O)COc1cccc2c1CCCC2CCCOC(c1ccccc1)c1ccccc1 (stereo unspecified) | 450 | 460 | –
8 | O=C(O)COc1cccc2c1CCC(CON=C(c1ccccc1)c1ccccc1)C2 (stereo unspecified) | 2400 | 2400 | –
